According to patent US20220280493A1 (priority 2021, published 2022):

How the values were obtained:
"Long-Haul" Covid-19 = experiment: Treatment of "Long-Haul" Covid-19 symptoms in the same patient; assay type: in vivo, human; conditions: for effect of added direct intranasal/lung inhalation: 0.1 ml of the 6% solution, 1-2 times/day
Description: After patient had discontinued treatment above for several weeks after the first round of disease, subsequent putative recurrent post-acute (“long-haul”) symptoms of Covid-19. These included malaise, fatigue, brain fog, myalgia and musculoskeletal pain, and shortness of breath. […] Treatment was titrated to a clinical response, with a maximum dose of 200 mg/day of Tempol. […] At two such interludes, in place of the Tempol, patient took 100 mg of phenylbutylnitrone (PBN).

Covid-19, Omicron strain = experiment: Treatment of "Break-Thru" Covid-19 infection in the same patient; assay type: in vivo, human
[1] = system: nonrespiratory coronavirus unrelated to SARS-CoV-2; conditions: induced by a nonrespiratory coronavirus; cited from earlier work

SMILES	effect of added direct intranasal/lung inhalation ("Long-Haul" Covid-19)	long-haul symptoms, oral treatment in place of Tempol ("Long-Haul" Covid-19; 100 mg, at two interludes)	long-haul symptoms, nasal/pulmonary inhalation ("Long-Haul" Covid-19; 0.1 ml of a 5% solution in water 3-4 times per day)	alleviation of upper respiratory symptoms, alternative intranasal treatments (Covid-19, Omicron strain; intranasal 3% gel (Q-tip) or insufflation of 0.2 ml of 3% solution, compared with 6% Tempol spray)	response of long-haul symptoms (malaise, fatigue, brain fog, myalgia and musculoskeletal pain, shortness of breath) ("Long-Haul" Covid-19; human, in vivo)	symptoms on withdrawal and repeat treatment ("Long-Haul" Covid-19; treatment withdrawn, then repeated)	time to alleviation of upper respiratory tract congestion (Covid-19, Omicron strain; inhalation of 20 mg, one 0.1 ml spritz of the 6% solution per nostril, followed by insufflation) [min]	murine viral encephalomyelitis [1]
CC1(C)CC(O)CC(C)(C)N1O [Tempol-H, the hydroxylamine reduced form of the nitroxide 4-hydroxy-2,2,6,6-tetramethylpiperidin-1-yloxy]	proved helpful							
CC(C)(C)[N+]([O-])=Cc1ccccc1 [PBN, 1-alpha-phenyl-tert-butyl nitrone]		some subjective clearing of symptoms	significant symptomatic relief	effective but the response was slower				
CC1(C)CC(O)CC(C)(C)N1[O] [Tempol, 4-hydroxy-TEMPO]	proved helpful				responded reversibly	Symptoms returned when the treatment was withdrawn, but responded to repeat treatment	5 to 10	ameliorates
